The text below walks through data of PMC9088703 (RSC Advances, 2018).

The target in data set [1] is T1, BSA (Bos taurus, UniProt P02769). It is filed as in vitro ADME, bovine. The settings on record: for Effect on the plasma protein binding of metoprolol: BSA, metoprolol 0.5, 1 and 2 μg mL^−1, statistical results (p > 0.05); for fraction unbound at 60 min, 0.5 μg mL^−1 / fraction unbound at 60 min, 1 μg mL^−1 / fraction unbound at 60 min, 2 μg mL^−1: bovine, BSA solution.

The nature of the next data set: Nonspecific binding. It is filed as in vitro ADME. The settings on record: concentration recovered after ultrafiltration.
Data set [2] concerns the target T1, BSA. The data set can be described thus: Plasma protein binding of metoprolol in BSA by ultrafiltration and UPLC. The settings on record: for C f: total free concentration in filtrate. Type of data set: in vitro ADME, bovine.
For a further data set, the system named is plasma protein. The settings on record: in humans; cited from earlier work.

By fraction unbound is commonly meant the share of the substance not bound to proteins or other matrix.

Like-named read-outs stand apart in the source and are kept apart here.

T1 sequence (P02769 25-607): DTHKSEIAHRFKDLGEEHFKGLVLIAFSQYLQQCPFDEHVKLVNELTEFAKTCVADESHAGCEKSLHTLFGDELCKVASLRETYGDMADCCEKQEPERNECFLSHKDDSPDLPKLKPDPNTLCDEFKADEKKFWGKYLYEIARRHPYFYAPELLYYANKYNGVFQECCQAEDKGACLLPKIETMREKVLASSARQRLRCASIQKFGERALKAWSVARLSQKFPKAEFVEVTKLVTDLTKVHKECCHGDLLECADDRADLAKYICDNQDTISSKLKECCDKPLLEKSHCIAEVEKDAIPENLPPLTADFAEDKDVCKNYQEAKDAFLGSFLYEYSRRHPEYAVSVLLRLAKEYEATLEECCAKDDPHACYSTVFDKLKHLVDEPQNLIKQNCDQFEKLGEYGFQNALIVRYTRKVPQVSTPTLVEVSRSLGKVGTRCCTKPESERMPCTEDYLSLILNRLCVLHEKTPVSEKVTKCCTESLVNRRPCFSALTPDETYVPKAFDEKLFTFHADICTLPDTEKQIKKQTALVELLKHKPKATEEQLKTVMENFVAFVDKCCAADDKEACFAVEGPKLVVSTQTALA

Take `C=C1CCC[C@]2(C)C[C@]3(O)OC(=O)C(C)=C3C[C@@H]12` [Atractylenolide III, atractylenolide III]: on BSA [1], the “Effect on the plasma protein binding of metoprolol” value (from here on “Effect”) is recorded as “unlikely to affect”.

Turning to `O=C(O)/C=C/c1ccccc1` [Cinnamic acid, cinnamic acid], the “Effect” value at BSA [1] was “unlikely to affect”.

As to `CC1(C)[C@@H](O[C@H]2O[C@H](C(=O)O)[C@@H](O)[C@H](O)[C@H]2O[C@@H]2O[C@H](C(=O)O)[C@@H](O)[C@H](O)[C@H]2O)CC[C@]2(C)[C@H]3C(=O)C=C4[C@@H]5C[C@@](C)(C(=O)O)CC[C@]5(C)CC[C@@]4(C)[C@]3(C)CC[C@@H]12` [Glycyrrhizic acid, glycyrrhizic acid], at BSA [1], the “Effect” value was “unlikely to affect”.

`O=C1C[C@@H](c2ccc(O[C@@H]3O[C@H](CO)[C@@H](O)[C@H](O)[C@H]3O)cc2)Oc2cc(O)ccc21` [Liquiritin, liquiritin]: the “Effect” value on BSA [1] is on record as “unlikely to affect”.

As for `COCCc1ccc(OCC(O)CNC(C)C)cc1` (centres unmarked) [Metoprolol], the figures for the C post in the data set “Nonspecific binding” (added 0.5 μg mL^−1), in the data set “Nonspecific binding” (added 1.0 μg mL^−1) and in the data set “Nonspecific binding” (added 2.0 μg mL^−1) were 0.40 ± 0.02 µg/mL, 0.78 ± 0.03 µg/mL and 1.55 ± 0.05 µg/mL, respectively. Besides, the fraction unbound at 60 min, 0.5 μg mL^−1 is 0.718 on BSA [2] (bovine, BSA solution); 0.741 on BSA [1] (Plasma protein binding (with cinnamic acid), metoprolol 0.5 μg mL^−1 plus cinnamic acid 1 μg mL^−1, BSA); 0.721 on BSA [1] (Plasma protein binding (with glycyrrhizic acid), metoprolol 0.5 μg mL^−1 plus glycyrrhizic acid 2 μg mL^−1, BSA); 0.74 on BSA [1] (Plasma protein binding (with liquiritin), metoprolol 0.5 μg mL^−1 plus liquiritin 2 μg mL^−1, BSA). For the same compound, the fraction unbound at 60 min, 1 μg mL^−1 at BSA [2] (bovine, BSA solution) is 0.703; on BSA [1] (Plasma protein binding (with cinnamic acid), metoprolol 1 μg mL^−1 plus cinnamic acid 1 μg mL^−1, BSA), 0.693; on BSA [1] (Plasma protein binding (with glycyrrhizic acid), metoprolol 1 μg mL^−1 plus glycyrrhizic acid 2 μg mL^−1, BSA), 0.717; on BSA [1] (Plasma protein binding (with liquiritin), metoprolol 1 μg mL^−1 plus liquiritin 2 μg mL^−1, BSA), 0.708. For the same compound, the fraction unbound at 60 min, 2 μg mL^−1 was 0.716 on BSA [2] (bovine, BSA solution); 0.716 at BSA [1] (Plasma protein binding (with cinnamic acid), metoprolol 2 μg mL^−1 plus cinnamic acid 1 μg mL^−1, BSA); 0.704 on BSA [1] (Plasma protein binding (with glycyrrhizic acid), metoprolol 2 μg mL^−1 plus glycyrrhizic acid 2 μg mL^−1, BSA); 0.701 on BSA [1] (Plasma protein binding (with liquiritin), metoprolol 2 μg mL^−1 plus liquiritin 2 μg mL^−1, BSA). Moreover, the C f on BSA [2] (metoprolol 0.5 μg mL^−1 alone) was 0.36 ± 0.01 µg/mL; on BSA [2] (metoprolol 1 μg mL^−1 alone), 0.70 ± 0.02 µg/mL; at BSA [2] (metoprolol 2 μg mL^−1 alone), 1.45 ± 0.03 µg/mL; on BSA [1] (metoprolol 0.5 μg mL^−1 plus cinnamic acid 1 μg mL^−1), 0.37 ± 0.01 µg/mL; at BSA [1] (metoprolol 1 μg mL^−1 plus cinnamic acid 1 μg mL^−1) it was 0.69 ± 0.02 µg/mL; at BSA [1] (metoprolol 2 μg mL^−1 plus cinnamic acid 1 μg mL^−1), 1.44 ± 0.03 µg/mL. Also, the C free was 0.37 ± 0.02 µg/mL on BSA [1] (metoprolol 0.5 μg mL^−1 plus atractylenolide III (0.1 μg mL^−1)); 0.35 ± 0.02 µg/mL on BSA [1] (metoprolol 0.5 μg mL^−1 plus glycyrrhizic acid 2 μg mL^−1); 0.37 ± 0.01 µg/mL at BSA [1] (metoprolol 0.5 μg mL^−1 plus liquiritin 2 μg mL^−1); 0.70 ± 0.02 µg/mL at BSA [1] (metoprolol 1 μg mL^−1 plus atractylenolide III (0.1 μg mL^−1)); 0.72 ± 0.02 µg/mL on BSA [1] (metoprolol 1 μg mL^−1 plus glycyrrhizic acid 2 μg mL^−1); 0.71 ± 0.03 µg/mL on BSA [1] (metoprolol 1 μg mL^−1 plus liquiritin 2 μg mL^−1). The C free at BSA [1] (metoprolol 2 μg mL^−1 plus atractylenolide III (0.1 μg mL^−1)) came out at 1.40 ± 0.08 µg/mL; at BSA [1] (metoprolol 2 μg mL^−1 plus glycyrrhizic acid 2 μg mL^−1), 1.40 ± 0.03 µg/mL; at BSA [1] (metoprolol 2 μg mL^−1 plus liquiritin 2 μg mL^−1), 1.39 ± 0.03 µg/mL. For the same compound, in the data set with plasma protein, the “mean plasma protein binding (PPB)” value was 30.70 ± 2.76%.
